Legend:
[1] = tested on: T. terrestris GH61E polypeptide; test: Microcrystalline cellulose conversion assay I (Examples 8, 9) with T. terrestris GH61E polypeptide; type: biochemical, Thielavia terrestris; settings: dioxy compound 0.3% w/w + T. terrestris GH61E polypeptide (10 mg/g) + endoglucanase II + beta-glucosidase (5 mg/g each), 96 hours
Protocol: (§1) A 5% microcrystalline cellulose slurry was prepared by addition of 2.5 g of AVICEL®PH101 (Sigma-Aldrich, St. Louis, Mo., USA) to a graduated 50 ml screw-cap conical tube followed by 15 ml of 1 M sodium acetate pH 5 and 1 ml of 100 mM MnSO4 and approximately 20 ml of deionizer water. Each conical tube was then mixed thoroughly by shaking/vortexing, and adjusted to 50 ml total with deionized water and mixed again. Contents of the tube were then quickly transferred to a 100 ml beaker and stirred rapidly with a magnetic stirrer. Five hundred μl aliquots of the 5% AVICEL® slurry were pipetted into wells of a 2.0 ml 96-deepwell plate (Axygen, Union City, Calif., USA) using a 1000 μl micropipette with a wide aperture tip (end of tip cut off about 2 mm from the base). Three hundred μl of either deionized water or a 1% dioxy compound solution (dissolved in deionized water) was added to each well.
(§2) The dioxy compounds assayed include caffeic acid (Sigma-Aldrich, St. Louis, Mo., USA), dichlorophenolindophenol (DCPIP; Sigma-Aldrich, St. Louis, Mo., USA), ethyl gallate (Sigma-Aldrich, St. Louis, Mo., USA), gallic acid (Sigma-Aldrich, St. Louis, Mo., USA), 3,4-dihydroxybenzoic acid (Sigma-Aldrich, St. Louis, Mo., USA), pyrocatechol (Sigma-Aldrich, St. Louis, Mo., USA), pyrogallol (Sigma-Aldrich, St. Louis, Mo., USA), sinapinic acid (3,5 dimethoxy-4-hydroxy cinnamic acid; Apin Chemicals LTD, Abingdon, UK), and tannic acid (Sigma-Aldrich, St. Louis, Mo., USA).
(§3) Enzyme mixtures were prepared and then added simultaneously to all wells in a volume of 200 μl, for a total of 1 ml in each reaction. […] All experiments reported were performed in triplicate.
(§4) After approximately 4 days, the deep-well plate was removed from the incubator and chilled overnight to 4° C. The plate was then mixed well by inversion and briefly centrifuged at 52×g in a SORVALL® RT7 centrifuge (Thermo Fisher Scientific, Waltham, Mass., USA) for 10 seconds. Samples were then mixed by pipetting, and 200 μl from each well were transferred to a MULTISCREEN® HV centrifuge filter plate assembly (Millipore, Bedford, Mass., USA). The centrifuge filter plate assembly was centrifuged at 2000 rpm in a SORVALL® RT7 centrifuge for 20 minutes. […] Sugars were detected using a refractive index detector (Agilent Technologies, Inc., Santa Clara, Calif., USA) with quantification by integration compared to purified sugar standards.
(§5) In this assay only glucose was measured since beta-glucosidase was at high levels in all samples but the controls.
(§6) A limit digest was performed to determine the total concentration accessible glucose equivalents using 100 mg of T. reesei cellulase (CELLIC™ CTec, Novozymes A/S, Bagsvaerd, Denmark) per gram cellulose, Triplicate data points were averaged and standard deviation was calculated.

[2] = tested on: T. aurantiacus CEL5A endoglucanase II and P. brasilianum CEL3A beta-glucosidase; test: Microcrystalline cellulose conversion assay I (Examples 8, 9) without GH61 polypeptide; type: biochemical, Thermoascus aurantiacus; Penicillium brasilianum; settings: dioxy compound 0.3% w/w + endoglucanase II + beta-glucosidase (5 mg/g each), no GH61; 96 hours, at either 50° C. or 60° C.
Protocol: as §1, §2, §3, §4, §5, §6

[3] = biological target: T. aurantiacus GH61A polypeptide (Thermoascus aurantiacus, UniProt G3XAP7, N13Y); test: Microcrystalline cellulose conversion assay II (Examples 10, 11), T. reesei CEL7A cellobiohydrolase I + A. oryzae CEL3A beta-glucosidase; type: biochemical; settings: 72 hours, 50° C.; for conversion (hydrolysis) of the microcrystalline cellulose: dioxy compound 0.1% w/w alone, no enzymes
Protocol: A 5% microcrystalline cellulose slurry was prepared by addition of 2.5 g of AVICEL® PH101 to a graduated 50 ml screw-cap conical tube followed by approximately 40 ml of deionized water. Each conical tube was then mixed thoroughly by shaking/vortexing, and adjusted to 50 ml total with deionized water and mixed again. For samples containing dioxy compounds, a similar slurry was prepared by the addition of 100 mg of solid dioxy compound and 2.5 g of AVICEL® PH101 to a graduated 50 ml screw-cap conical tube followed by approximately 40 ml of deionized water. Each conical tube was then mixed thoroughly by shaking/vortexing, and adjusted to 50 ml total with deionized water and mixed again.
The dioxy compounds assayed include caffeic acid, dichlorophenolindophenol (DCPIP), ethyl gallate, gallic acid, 3,4-dihydroxybenzoic acid, pyrocatechol, pyrogallol, sinapinic acid (3,5 dimethoxy-4-hydroxy cinnamic acid), and tannic acid.
In all cases, the contents of the tube (5% microcrystalline cellulose slurry with or without 0.2% dioxy compound) were then quickly transferred to a 100 ml beaker and stirred rapidly with a magnetic stirrer. Five hundred μl aliquots of the 5% AVICEL® slurry were pipetted into wells of a 2.0 ml 96-deepwell plate (Axygen, Union City, Calif.) using a 1000 μl micropipette with a wide aperture tip (end of tip cut off about 2 mm from the base). One hundred μl of deionized water and 300 μl of 3.33 mM MnSO4-500 mM sodium acetate pH 5 were then added to each well. Enzyme mixtures were prepared and then added simultaneously to all wells in a volume of 100 μl, for a total of 1 ml in each reaction. […] All experiments reported were performed in triplicate.
as §4, with “Primary analysis of the hydrolysis reactions was performed using an AGILENT® 1100 HPLC with CHEMSTATION® software equipped with an AMINEX™ HPX-87H column. After” for “After”, “centrifuge” for “centrifuge (Thermo Fisher Scientific, Waltham, Mass., USA)”, “assembly.” for “assembly (Millipore, Bedford, Mass., USA).”, “detector” for “detector (Agilent Technologies, Inc., Santa Clara, Calif., USA)”
All HPLC data processing was performed using MICROSOFT EXCEL™ software. […] In this assay only glucose was measured since beta-glucosidase was at high levels in all samples but the controls. The degree of cellulose conversion was calculated using Equation 1. Triplicate data points were averaged and standard deviation was calculated.
The microcrystalline cellulose hydrolysis assay was performed as described in Example 10.
Data were collected and analyzed, as described in Example 10, after 72 hours of incubation at 50° C.

Sequence of T. aurantiacus GH61A polypeptide (G3XAP7 whole entry N13Y): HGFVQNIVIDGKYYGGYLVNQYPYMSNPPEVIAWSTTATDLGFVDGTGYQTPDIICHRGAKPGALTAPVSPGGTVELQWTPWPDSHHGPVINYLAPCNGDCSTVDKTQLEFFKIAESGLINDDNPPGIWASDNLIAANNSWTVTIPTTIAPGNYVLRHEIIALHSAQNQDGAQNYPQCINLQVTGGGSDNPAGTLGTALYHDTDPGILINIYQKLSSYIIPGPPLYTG

SMILES	conversion of microcrystalline cellulose ([1]; 50° C.) [%]	conversion of microcrystalline cellulose ([1]; 60° C.) [%]	change in conversion of microcrystalline cellulose compared to the enzymes in the absence of the dioxy compound [2]	conversion (hydrolysis) of the microcrystalline cellulose [3]	conversion of the microcrystalline cellulose ([3]; dioxy compound 0.1% w/w + cellobiohydrolase I + beta-glucosidase (5 mg/g each), no GH61)
CCOC(=O)c1cc(O)c(O)c(O)c1 [ethyl gallate]	6.0±0.3	6.2±0.1	no significant change	no significant hydrolysis	
Oc1ccccc1O [pyrocatechol]	7.4±0.2	7.9±0.1	no significant change	no significant hydrolysis	no significant change
Oc1cccc(O)c1O [pyrogallol]	7.1±0.5	9.5±0.1	no significant change	no significant hydrolysis	

From patent US9394555B2, “Compositions comprising a polypeptide having cellulolytic enhancing activity and a dioxy compound and uses thereof” (priority 2010, dated 2016)
